Measurements taken from US12522607B2, “Substituted pyrazolo[3,4-d]pyrimidines as wee-1 inhibitors” (WIGEN BIOMEDICINE TECHNOLOGY (SHANGHAI) CO., LTD., priority 2020, dated 2026).

Columns and labels:
Wee-1 kinase = biological target: T1, Wee-1 kinase (Homo sapiens, UniProt P30291); test: Inhibitory activity against Wee-1 kinase (Lanthra Screen Wee-1 kinase kit, Tracer 178); assay type: binding; conditions: Wee-1 kinase 5 nM, Tracer 178 50 nM, 1 h room temperature
T1 construct: purchased Invitrogen
T1 sequence (P30291 whole entry): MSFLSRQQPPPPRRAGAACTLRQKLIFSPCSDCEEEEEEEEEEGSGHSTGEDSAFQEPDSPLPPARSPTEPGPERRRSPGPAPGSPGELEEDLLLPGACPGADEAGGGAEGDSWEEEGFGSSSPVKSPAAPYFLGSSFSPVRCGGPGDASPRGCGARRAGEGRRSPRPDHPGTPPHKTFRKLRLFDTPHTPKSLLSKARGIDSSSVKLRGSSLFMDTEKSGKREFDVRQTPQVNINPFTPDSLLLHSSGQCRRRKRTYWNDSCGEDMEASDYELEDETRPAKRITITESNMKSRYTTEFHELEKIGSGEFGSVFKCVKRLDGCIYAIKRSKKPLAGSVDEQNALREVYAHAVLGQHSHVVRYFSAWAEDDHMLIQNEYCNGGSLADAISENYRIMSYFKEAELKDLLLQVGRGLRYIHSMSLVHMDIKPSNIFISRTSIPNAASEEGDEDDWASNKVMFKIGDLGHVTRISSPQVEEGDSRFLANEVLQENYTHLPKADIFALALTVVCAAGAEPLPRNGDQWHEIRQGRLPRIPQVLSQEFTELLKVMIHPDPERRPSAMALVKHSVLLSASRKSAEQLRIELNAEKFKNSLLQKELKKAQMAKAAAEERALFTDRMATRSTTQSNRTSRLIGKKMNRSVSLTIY
How it was run: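 Compound gradient in DMSO mixed with 5 nM Wee-1, 2 nM Eu-anti-GST antibody and 50 nM Tracer 178 (all final). Read after one hour at room temperature; IC50 calculated against the DMSO solvent control.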

HT29 cells = test: Antiproliferative activity against HT29 cells (Cell Titer-Lumi, ATP content); assay type: cell-based; conditions: Homo sapiens, HT-29, 72 after compound addition, read-out: HT-29 cells Anti-proliferative activity (IC50 for the inhibition against HT-29 cell growth)
How it was run: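 Growth inhibition IC50 derived from luminescent ATP content after 72 (units as printed) of compound exposure over a dilution gradient. Seeding density 3000 cells per well; compound added once cells had adhered overnight.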

Structure (SMILES) | IC50 (Wee-1 kinase) [nM] | IC50 (HT29 cells) [nM]
CCn1c(=O)c2cnc(Nc3ccc4c(c3)CN(C)CC43CC3)nc2n1-c1ccc(=O)n(C(C)C)n1 [Compound 277] | ≤ 30 | ≤ 1000
Cc1cc(Nc2ncc3c(=O)n(C(C)C)n(-c4ccc(=O)n(C(C)C)n4)c3n2)ccc1N1CCN(C)CC1 [Compound 278] | ≤ 30 | ≤ 1000
Cc1cc(Nc2ncc3c(=O)n(C(C)C)n(-c4ccc(=O)n(C(C)C)n4)c3n2)ccc1C1CCN(C)CC1 [Compound 279] | ≤ 30 | ≤ 1000
CC(C)n1nc(-n2c3nc(Nc4ccc5c(c4)CN(C)CC54CC4)ncc3c(=O)n2C(C)C)ccc1=O [Compound 280] | ≤ 30 | ≤ 1000
C=CCn1c(=O)c2cnc(Nc3ccc(N4CCN(C)CC4)c(C)c3)nc2n1-c1ccc(=O)n(C(C)(C)C)n1 [Compound 281] | ≤ 30 | ≤ 1000
C=CCn1c(=O)c2cnc(Nc3ccc(C4CCN(C)CC4)c(C)c3)nc2n1-c1ccc(=O)n(C(C)(C)C)n1 [Compound 282] | ≤ 30 | ≤ 1000
C=CCn1c(=O)c2cnc(Nc3ccc4c(c3)CN(C)CC43CC3)nc2n1-c1ccc(=O)n(C(C)(C)C)n1 [Compound 283] | ≤ 30 | ≤ 1000
CCn1c(=O)c2cnc(Nc3ccc(N4CCN(C)CC4)cc3)nc2n1-c1ccc(=O)n(C(C)(C)C)n1 [Compound 284] | ≤ 30 | ≤ 1000
CCn1c(=O)c2cnc(Nc3ccc(N4CCN(C)CC4)c(C)c3)nc2n1-c1ccc(=O)n(C(C)(C)C)n1 [Compound 285] | ≤ 30 | ≤ 1000
CCn1c(=O)c2cnc(Nc3ccc(C4CCN(C)CC4)c(C)c3)nc2n1-c1ccc(=O)n(C(C)(C)C)n1 [Compound 286] | ≤ 30 | ≤ 1000
CCn1c(=O)c2cnc(Nc3ccc4c(c3)CN(C)CC43CC3)nc2n1-c1ccc(=O)n(C(C)(C)C)n1 [Compound 287] | ≤ 30 | ≤ 1000
CC(C)n1c(=O)c2cnc(Nc3ccc(N4CCN(C)CC4)cc3)nc2n1-c1ccc(=O)n(C(C)(C)C)n1 [Compound 288] | ≤ 30 | ≤ 1000
Cc1cc(Nc2ncc3c(=O)n(C(C)C)n(-c4ccc(=O)n(C(C)(C)C)n4)c3n2)ccc1N1CCN(C)CC1 [Compound 289] | ≤ 30 | ≤ 1000
Cc1cc(Nc2ncc3c(=O)n(C(C)C)n(-c4ccc(=O)n(C(C)(C)C)n4)c3n2)ccc1C1CCN(C)CC1 [Compound 290] | ≤ 30 | ≤ 1000
CC(C)n1c(=O)c2cnc(Nc3ccc4c(c3)CN(C)CC43CC3)nc2n1-c1ccc(=O)n(C(C)(C)C)n1 [Compound 291] | ≤ 30 | ≤ 1000
CN1CCN(c2ccc(Nc3ncc4c(=O)n(C5CC5)n(-c5ccc(=O)n(C(C)(C)C)n5)c4n3)cc2)CC1 [Compound 292] | ≤ 30 | ≤ 1000
Cc1cc(Nc2ncc3c(=O)n(C4CC4)n(-c4ccc(=O)n(C(C)(C)C)n4)c3n2)ccc1N1CCN(C)CC1 [Compound 293] | ≤ 30 | ≤ 1000
Cc1cc(Nc2ncc3c(=O)n(C4CC4)n(-c4ccc(=O)n(C(C)(C)C)n4)c3n2)ccc1C1CCN(C)CC1 [Compound 294] | ≤ 30 | ≤ 1000
CN1Cc2cc(Nc3ncc4c(=O)n(C5CC5)n(-c5ccc(=O)n(C(C)(C)C)n5)c4n3)ccc2C2(CC2)C1 [Compound 295] | ≤ 30 | ≤ 1000
C=CCn1c(=O)c2cnc(Nc3ccc(N4CCN(C)CC4)c(C)c3)nc2n1-c1ccc(=O)n(C(C)C)c1 [Compound 296] | ≤ 30 | ≤ 1000
C=CCn1c(=O)c2cnc(Nc3ccc(C4CCN(C)CC4)c(C)c3)nc2n1-c1ccc(=O)n(C(C)C)c1 [Compound 297] | ≤ 30 | ≤ 1000

Structure (SMILES) | IC50 (Wee-1 kinase) [nM] | IC50 (HT29 cells) [nM]
C=CCn1c(=O)c2cnc(Nc3ccc4c(c3)CN(C)CC43CC3)nc2n1-c1ccc(=O)n(C(C)C)c1 [Compound 298] | ≤ 30 | ≤ 1000
CCn1c(=O)c2cnc(Nc3ccc(N4CCN(C)CC4)cc3)nc2n1-c1ccc(=O)n(C(C)C)c1 [Compound 299] | ≤ 30 | ≤ 1000
CCn1c(=O)c2cnc(Nc3ccc(N4CCN(C)CC4)c(C)c3)nc2n1-c1ccc(=O)n(C(C)C)c1 [Compound 300] | ≤ 30 | ≤ 1000
CCn1c(=O)c2cnc(Nc3ccc(C4CCN(C)CC4)c(C)c3)nc2n1-c1ccc(=O)n(C(C)C)c1 [Compound 301] | ≤ 30 | ≤ 1000
CCn1c(=O)c2cnc(Nc3ccc4c(c3)CN(C)CC43CC3)nc2n1-c1ccc(=O)n(C(C)C)c1 [Compound 302] | ≤ 30 | ≤ 1000
CC(C)n1cc(-n2c3nc(Nc4ccc(N5CCN(C)CC5)cc4)ncc3c(=O)n2C(C)C)ccc1=O [Compound 303] | ≤ 30 | ≤ 1000
Cc1cc(Nc2ncc3c(=O)n(C(C)C)n(-c4ccc(=O)n(C(C)C)c4)c3n2)ccc1N1CCN(C)CC1 [Compound 304] | ≤ 30 | ≤ 1000
Cc1cc(Nc2ncc3c(=O)n(C(C)C)n(-c4ccc(=O)n(C(C)C)c4)c3n2)ccc1C1CCN(C)CC1 [Compound 305] | ≤ 30 | ≤ 1000
CC(C)n1cc(-n2c3nc(Nc4ccc5c(c4)CN(C)CC54CC4)ncc3c(=O)n2C(C)C)ccc1=O [Compound 306] | ≤ 30 | ≤ 1000
CC(C)n1cc(-n2c3nc(Nc4ccc(N5CCN(C)CC5)cc4)ncc3c(=O)n2C2CC2)ccc1=O [Compound 307] | ≤ 30 | ≤ 1000
Cc1cc(Nc2ncc3c(=O)n(C4CC4)n(-c4ccc(=O)n(C(C)C)c4)c3n2)ccc1N1CCN(C)CC1 [Compound 308] | ≤ 30 | ≤ 1000
Cc1cc(Nc2ncc3c(=O)n(C4CC4)n(-c4ccc(=O)n(C(C)C)c4)c3n2)ccc1C1CCN(C)CC1 [Compound 309] | ≤ 30 | ≤ 1000
CC(C)n1cc(-n2c3nc(Nc4ccc5c(c4)CN(C)CC54CC4)ncc3c(=O)n2C2CC2)ccc1=O [Compound 310] | ≤ 30 | ≤ 1000
C=CCn1c(=O)c2cnc(Nc3ccc(N4CCN(C)CC4)c(OC)c3)nc2n1-c1cc(F)c(=O)n(C(C)C)c1 [Compound 311] | ≤ 30 | ≤ 1000
C=CCn1c(=O)c2cnc(Nc3ccc(N4CCN(C)CC4)c(C)c3)nc2n1-c1cc(F)c(=O)n(C(C)C)c1 [Compound 312] | ≤ 30 | ≤ 1000
C=CCn1c(=O)c2cnc(Nc3ccc(C4CCN(C)CC4)c(C)c3)nc2n1-c1cc(F)c(=O)n(C(C)C)c1 [Compound 313] | ≤ 30 | ≤ 1000
C=CCn1c(=O)c2cnc(Nc3ccc4c(c3)CN(C)CC43CC3)nc2n1-c1cc(F)c(=O)n(C(C)C)c1 [Compound 314] | ≤ 30 | ≤ 1000
CCn1c(=O)c2cnc(Nc3ccc(N4CCN(C)CC4)cc3)nc2n1-c1cc(F)c(=O)n(C(C)C)c1 [Compound 315] | ≤ 30 | ≤ 1000
CCn1c(=O)c2cnc(Nc3ccc(N4CCN(C)CC4)c(C)c3)nc2n1-c1cc(F)c(=O)n(C(C)C)c1 [Compound 316] | ≤ 30 | ≤ 1000
CCn1c(=O)c2cnc(Nc3ccc(C4CCN(C)CC4)c(C)c3)nc2n1-c1cc(F)c(=O)n(C(C)C)c1 [Compound 317] | ≤ 30 | ≤ 1000
CCn1c(=O)c2cnc(Nc3ccc4c(c3)CN(C)CC43CC3)nc2n1-c1cc(F)c(=O)n(C(C)C)c1 [Compound 318] | ≤ 30 | ≤ 1000
